# According to patent US20260241028A1, “METAL-BASED ANTIBODY-DRUG CONJUGATES AND METHODS OF MAKING AND USING THEREOF” (Laboratory for Synthetic Chemistry and Chemical Biology …, priority 2024, published 2026):
# Read-outs that look alike come from different tables or passages of the source.
# Columns and labels:
# Calu3 = test: In vitro anti-proliferative activity (NBB assay), Calu3; format: cell-based, human; conditions: 72 h
# Experimental: (§1) Cells (4×10^3 cells/well) were seeded in a microtiter plate (96 wells) and incubated overnight before the treatment. […] After the media was removed, the cells were fixed with formaldehyde (3%; 50 μL) in PBS and stained with NBB reagent (0.05%, 0.1 M sodium acetate, 9% acetic acid; 50 μL) for overnight. The stained cells in each well were washed thrice gently with deionized water and solubilized in sodium hydroxide solution (50 mM; 100 μL). The cell viability was determined by measuring the absorbance of 620 nm in each well by microplate reader. The experiments were repeated in triplicate.
# A549 = test: In vitro anti-proliferative activity (NBB assay), A549; format: cell-based; conditions: Table 1; 72 h; read-out: IC50 A549 lung
# Experimental: as §1
# PANC1 = test: In vitro anti-proliferative activity (NBB assay), PANC1; format: cell-based; conditions: Table 1; 72 h; read-out: IC50 PANC1 pancreas
# Experimental: as §1
# SW1990 = test: In vitro anti-proliferative activity (NBB assay), SW1990; format: cell-based, human; conditions: 72 h
# Experimental: as §1
# HCC827 = test: In vitro anti-proliferative activity (NBB assay), HCC827; format: cell-based, human; conditions: 72 h
# Experimental: as §1
# MHCC97L = test: In vitro anti-proliferative activity (NBB assay), MHCC97L; format: cell-based; conditions: Table 1; 72 h; read-out: IC50 MHCC97L liver
# Experimental: as §1
# HT29 = test: In vitro anti-proliferative activity (NBB assay), HT29; format: cell-based; conditions: Table 1; 72 h; read-out: IC50 HT29 colon
# Experimental: as §1
# MDA-MB-231 = test: In vitro anti-proliferative activity (NBB assay), MDA-MB-231; format: cell-based; conditions: Table 1; 72 h; read-out: IC50 MDA-MB-231 breast
# Experimental: as §1
# SKBR3 = test: In vitro anti-proliferative activity (NBB assay), SKBR3; format: cell-based; conditions: 72 h
# Experimental: as §1
# panel of cell lines = test: NBB assay, summary over the panel of cell lines; format: cell-based
# Experimental: as §1
# NCI-H460 = test: In vitro anti-proliferative activity (NBB assay), NCI-H460; format: cell-based; conditions: Table 1; 72 h; read-out: IC50 NCI-H460 lung
# Experimental: as §1
# HCT116 = test: In vitro anti-proliferative activity (NBB assay), HCT116; format: cell-based; conditions: Table 1; 72 h; read-out: IC50 HCT116 colon
# Experimental: as §1
# HEK293 = test: In vitro anti-proliferative activity (NBB assay), HEK293; format: cell-based, human; conditions: Table 1; 72 h; read-out: IC50 HEK293 kidney
# Experimental: as §1
# BxPC3 = test: In vitro anti-proliferative activity (NBB assay), BxPC3; format: cell-based, human; conditions: 72 h
# Experimental: as §1
# NCI-N87 = test: In vitro anti-proliferative activity (NBB assay), NCI-N87; format: cell-based; conditions: Table 1; 72 h; read-out: IC50 NCI-N87 gastric
# Experimental: as §1
# SKOV3 = test: In vitro anti-proliferative activity (NBB assay), SKOV3; format: cell-based; conditions: Table 1; 72 h; read-out: IC50 SKOV3 ovarian
# Experimental: as §1
# [1] = tested on: TROP2-overexpressed cancer cells (HCC827, Calu3, BxPC3, SW1990, SKBR3); test: NBB assay, summary over TROP2-overexpressed cancer cells; format: cell-based; conditions: all the cells of Table 2
# Experimental: as §1
# [2] = tested on: TROP2-overexpressed cancer cells (HCC827, Calu3, BxPC3, SW1990); test: Flow cytometric binding study, TROP2-overexpressed cells; format: cell-based, human; conditions: flow cytometry, 4° C., 1 h
# Experimental: Cells (2×10^5 cells/tube) were suspended in FACS staining buffer (2% FBS in PBS) into a 1.5 mL eppendorf tube. They were incubated with Sacituzumab, ADC-Au or IgG control respectively in staining buffer (100 μL) at 4° C. After 1 h, the cell suspensions were centrifuged at 1500 rpm for 3 min at 4° C. and washed with staining buffer (1 mL) twice to discard unbound antibodies. The cells were then incubated with Alexa Fluor 594 goat anti-human secondary antibody at 4° C. for 1 h and then subject to centrifugation. The cells were washed twice again and were resuspended in staining buffer. The mean fluorescence intensities (MFI) were measured using Beckman Cytoflex S Flow Cytometer.
# [3] = Table 1, read-out: IC50 Calu3 lung
# [4] = Table 1, read-out: IC50 SW1990 pancreas
# [5] = Table 1, read-out: IC50 HCC827 lung
# [6] = Table 1, read-out: IC50 SKBR3 breast
# [7] = Table 1, read-out: IC50 BxPC3 pancreas
Molecule,IC50 (Calu3; [3]) [nM],IC50 (A549) [nM],IC50 (PANC1) [nM],IC50 (SW1990; [4]) [nM],IC50 (HCC827; [5]) [nM],IC50 (MHCC97L) [nM],IC50 (HT29) [nM],IC50 (MDA-MB-231) [nM],IC50 (SKBR3; [6]) [nM],IC50 (NCI-H460) [nM],IC50 (HCT116) [nM],IC50 (HEK293) [nM],IC50 (BxPC3; [7]) [nM],IC50 (NCI-N87) [nM],IC50 (SKOV3) [nM],further results
O=C(O)c1ccc(C2=c3ccc4[n]3[Au-]35[n]6c(ccc6C(c6ccccc6)=C6C=CC2=[N+]63)C(c2ccccc2)=C2C=CC(=[N+]25)C=4c2ccccc2)cc1.[Cl-] (centres unmarked) [AuCOOH],1760,690,2430,2190,1770,2650,640,710,270,420,710,650,840,1310,2890,cytotoxicity / potency compared with the other gold complexes (panel of cell lines): lowest cytotoxicity
"C1=CC2=[N+]3C1=C(c1ccccc1)c1ccc4[n]1[Au-]31[n]3c(ccc3=C(c3ccccc3)C3=[N+]1C(=C4c1ccccc1)C=C3)=C2c1ccccc1.Cl [AuTPP, gold (III) tetraphenylporphyrin, reference compound]",290,90,100,170,140,150,120,180,80,120,150,130,80,100,90,–
Sacituzumab: TROP2-targeted monoclonal antibody (MCE),–,–,–,–,–,–,–,–,–,–,–,–,–,–,–,"IC50 (Calu3; Table 2, Example 1 (Sacituzumab ADC), read-out: IC50 Calu3): > 2000 nM; IC50 (SW1990; Table 2, Example 1 (Sacituzumab ADC), read-out: IC50 SW1990): > 2000 nM; IC50 (HCC827; Table 2, Example 1 (Sacituzumab ADC), read-out: IC50 HCC827): > 2000 nM; cell growth inhibition [1]: not obvious; IC50 (SKBR3; Table 2, Example 1 (Sacituzumab ADC), read-out: IC50 SKBR3): > 2000 nM; IC50 (BxPC3; Table 2, Example 1 (Sacituzumab ADC), read-out: IC50 BxPC3): > 2000 nM; specific binding to TROP2-overexpressed cancer cells [2]: significant specific-binding"
